What was measured:
[1] = test system: guinea-pig papillary muscle; assay: Positive inotropic effect in paced cardiac muscle; assay type: cell-based; conditions: Cavia porcellus; right ventricular papillary muscle paced at 1 Hz, 37° C.
Experimental: Positive Inotropic Effect in Paced Cardiac Muscle
Four weeks old guinea-pigs weighing about 350 g were used. In the experiments the right ventricular papillary muscle of the heart was mounted for measurement of isometric tension in organ bath containing modified Tyrode solution (37° C.) bubbled with 95% O2, 5% CO2. The composition of the modified Tyrode solution was (mM): NaCl 135; MgCl2.6H2O 1; KCl 5; CaCl2.2H2O 2; NaHCO3 15; Na2HPO4.2H2O 1; glucose 10; pH 7.3-7.4. The volume of the open horizontal chamber was 1 ml and flow rate of the superfusion solution running through the chamber was 5 ml/min. Papillary muscle (<1 mm in diameter) was stretched horizontally between force-displacement transducer (FT 0.3 and a needle fixed to the bottom of the chamber. An initial stretching tension of 300 mg was applied to the muscle which was electrically stimulated (Stimulator model SEC 48 F, Grass Instruments) via platinum field electrodes at 1 Hz with rectangular pulses (duration 4 ms). The stimulation occurred at twice threshold voltage in order to achieve simultaneous activation of all myocytes in the […]. A force-displacement transducer was connected to a polygraph D.C. driver amplifier (model 7 DA, Grass Instruments) and a programmable scanner (model SI 5010, Tetronix). […]

[2] = test system: skinned cardiac fiber (left ventricular papillary muscle); assay: Calcium sensitizing effect in skinned cardiac fiber; assay type: cell-based, guinea-pig; conditions: pCa 5.6; concentration not given
From the text: Calcium Sensitizing Effect in Skinned Cardiac Fiber
Left ventricular papillary muscle of the guinea-pig was dissected and rinsed in ice-cold Tyrode solution. Thereafter the papillary muscle was immersed into a solution containing (mM): Potassium acetate 74.7, EGTA 10, MgSO4 5.4, ATP-Na2 4, DTE 1, MOPS 20, pH 7.0 (by 1 M KOH). Subsequently, the papillary muscle was sonicated at 10 Watt for 60 sec in this ice-cold solution. The distance between ultrasound probe and the papillary muscle was 10 mm. The fibers (<200 μm in diameter) were dissected from surface of sonicated papillary muscles. Moreover, the sonicated and dissected fibers were kept for 30 min in a “skinning” solution (ice-cold) containing saponin (250 μg/ml) in addition to the other constituents. Continuous magnetic stirring was used during this treatment.
The fibers which were further dissected (<100 μm in diameter) were then mounted horizontally with a glue (cellulose acetate in acetone) between a steel-rod extension of isometric force transducer (AME-801 strain gauge, Horten Electronics, Norway) and a glass rod attached to a micro-manipulator. The force transducer was connected to an amplifier. The fibers were kept in the “relaxing” solution containing (mM): imidazole 30, ATP-Na2 10, NaN3 5, EGTA 5, MgCl2 12.5, and 350 U creatinkinase. The temperature of the solution was 22° C. and the pH was set to 6.7 by 1 M KOH. […]

EC50 [1]	SMILES	Calcium sensitizing effect in skinned fiber: Change in force % of control [2]
0.1 µM	CC(=O)Nc1ccc(C2=NNC(=O)C[C@H]2C)cc1 [Compound A, (R)-N-[4-(1,4,5,6-tetrahydro-4-methyl-6-oxo-3-pyridazinyl)phenyl]acetamide]	
2 µM	Cc1[nH]c(=O)c(C#N)cc1-c1ccncc1 [Milrinone, milrinone]	ineffective

Reference: patent USRE38102E1, “Use of a pyridazinone derivative” (Orion Corporation, priority 1998, dated 2003)
